Test results: article PMC11009276, “Design, synthesis, biological assessment and molecular modeling studies of novel imidazothiazole-thiazolidinone hybrids as potential anticancer and anti-inflammatory agents” (Scientific Reports, 2024)
Where two headings read alike, the source gives them in different places.

Legend:
A549 cells [1] = test: Wound healing (migration) assay; format: cell-based, human; details: 30 µM, 0 and 24 h, vs control
Procedure: Migration of cells is directly associated with tumor progression and metastasis of cancerous cells. […] An artificial scratch or wound was created on the monolayer of A549 cells using a 200µL sterile pipette tip. […] The images of cells to fill up the artificial scratch or wounds were photographed at 0 and 24 h after the treatment and the responses were visualized using phase contrast microscopy.
Wound healing was performed with A549 cells. On six-well plates, cells were seeded at a density of 5 × 10^5 cells per well and cultured as a confluent monolayer for 24 h. A […] pipette sterile tip was used to make an artificial scratch or wound on the monolayer of A549 cells after a 24-h period, and well plates were then washed with PBS to eliminate any non-adherent cells. The therapy was then administered at the appropriate concentrations of chemicals 4c and 4b. A Nikon phase contrast microscope was used to take pictures of the movement of cells over the scratched region at 0 and 24 h in two or three randomly chosen fields.

A549 cells [2] = test: AO/EB dual staining apoptosis assay; format: cell-based, human; details: vs control
Procedure: An early and late apoptotic along with necrotic cells were also observed in active compounds (4a-c) treated A549 cells (Fig. 9b).
A549 cell lines were cultured in six-well plates at 4 × 10^4 cells/well and then these cells were treated with 1.56 and 12.5 μg mL^−1 of […] for 48 h respectively. Further, Cells were harvested and stained with AO-EtBr dye mix (1:1 v/v from 100 μg mL^−1 in PBS) and studied using a fluorescent microscope.

[3] = biological target: Bovine serum albumin (BSA) (Bos taurus, UniProt P02769); test: BSA (protein albumin) denaturation inhibition assay; details: for BSA denaturation inhibition assay Mean absorbance ± SEM: 100 μg/mL, 660 nm
Chain of Bovine serum albumin (BSA) (P02769 25-607): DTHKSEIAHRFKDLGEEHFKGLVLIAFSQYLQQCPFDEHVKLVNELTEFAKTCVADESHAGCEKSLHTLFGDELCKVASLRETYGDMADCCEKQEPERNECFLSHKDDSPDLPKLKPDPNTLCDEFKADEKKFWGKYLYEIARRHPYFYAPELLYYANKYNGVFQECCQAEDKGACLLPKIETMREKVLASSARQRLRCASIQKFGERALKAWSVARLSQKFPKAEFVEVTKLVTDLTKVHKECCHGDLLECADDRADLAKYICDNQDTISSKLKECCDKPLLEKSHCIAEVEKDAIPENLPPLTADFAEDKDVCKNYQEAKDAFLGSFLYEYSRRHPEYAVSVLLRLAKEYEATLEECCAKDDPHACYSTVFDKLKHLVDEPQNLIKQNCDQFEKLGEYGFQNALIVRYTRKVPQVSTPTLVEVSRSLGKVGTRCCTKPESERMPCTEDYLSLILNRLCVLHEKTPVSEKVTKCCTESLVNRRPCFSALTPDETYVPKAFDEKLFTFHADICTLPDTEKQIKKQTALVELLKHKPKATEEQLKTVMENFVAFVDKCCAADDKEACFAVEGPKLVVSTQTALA
Procedure: All the synthesized compounds were evaluated for anti-inflammatory activity by the inhibition of the albumin denaturation technique. […] All the test solutions (1 mL, 100 μg/mL) were then mixed with 1 mL of albumin solution (1%) and phosphate buffer saline and then incubated for around 15 min at 27 ± 1 °C. Further, the denaturation of protein was induced by keeping the reaction mixture on the water bath for 10 min and maintaining the temperature at 60 °C. Once the solution gets cooled, the turbidity was measured using UV–Visible spectrophotometer at 660 nm.

[4] = tested on: carrageenan-induced rat hind paw edema; test: Carrageenan-induced rat paw edema inhibition assay; format: in vivo; details: after 4 h; for % inhibition (paw edema) / Increase in Paw volume SEM: oral 0.0314 mmol/kg; for Increase in Paw volume SEM: n = 6; for Activity relative to standard drug: relative to diclofenac sodium
Procedure: The anti-inflammatory efficacy of the newly synthesised compounds was assessed using a carrageenan-induced rat hind paw edema technique The animals were divided into groups of six at random, fasted for 24 h before to the experiment, and given free access to water. 0.5% CMC solution was given to the control group only. […] One hour after the administration of the test compounds and the reference drug, 0.1 mL of a 1% carrageenan solution in saline was subcutaneously injected into the subplantar area of the right hind paw of each rat. The right hind paw volume was measured using a Digital Plethysmometer PLM-01 Plus (Orchid Scientifics and Innovatives India Pvt. Ltd., Mumbai, India) at 3 and 4 h after carrageenan therapy. The following calculation was used to compute the percent edema inhibition from the mean effect in the treated and control animals: Percent edema inhibition=Vc-Vt/Vc×100 where Vc denotes the mean increase in paw volume in the control group of rats and Vt denotes the mean increase in paw volume in rats treated with test chemicals. After a 15-day washout period, the same group of rats utilised for the anti-inflammatory activity were employed for the ulcerogenic activity.

gastric mucosa of rats = test: Ulcerogenic activity; format: in vivo, rat; details: oral 0.0942 mmol/kg
Procedure: The Compounds (4a-d, 5a-b) which were found potent as anti-inflammatory agents were further screened for their ulcerogenic risk. The compounds and the standard drug were tested at an oral dose of 0.0942 mmol/kg.
Animals were divided into different groups consisting of 6 rats per group. […] The control group received 0.5% of the carboxymethylcellulose (CMC) solution. […] 24 h before the test compounds were administered. After receiving the medication, the rats were given regular food for 17 h and then sacrificed. The stomach was taken out and opened along its greater curvature before being gently cleansed by dipping it in normal saline and then washing it with distilled water. The mucosal injury/damage was examined thoroughly using a magnifying glass. The mucosal injury in each stomach was scored using the following score system: 0.5: Redness; 1.0: Spot Ulcers; 1.5: Hemorrhagic Streaks; 2.0: Ulcers > 3 but 5, 3.0: Ulcers > 5. The severity index (SI) of stomach mucosal injury was calculated as the mean score of each treated group minus the mean score of the control group.

[5] = tested on: gastric mucosa tissue of rats; test: Lipid peroxidation in gastric mucosa; format: in vivo, rat; details: oral 0.0942 mmol/kg
Procedure: The compounds screened for ulcerogenic potential were also analysed for lipid peroxidation. Lipid peroxidation is measured as nmolMDA/100 mg of gastric mucosa tissue. […] Thus, it was concluded that protection of gastric mucosa might be related to the inhibition of lipid peroxidation.
Lipid peroxidation in the gastric mucosa was determined using the reported method by Ohkawa H. et al.[61]. The gastric mucosa of the glandular area was scraped off using glass slides after the stomach had been examined for ulcers. Gastric mucosa was weighed (100 mg) and homogenised in 1.8 cm^3 of ice-cold solution of KCl (1.15%). The homogenate is further added with 0.2 cm^3 of 8.1% sodium dodecyl sulphate (SDS), 1.5 cm^3 of acetate buffer, and 1.5 cm^3 of 0.8% thiobarbituric acid. After adding all buffers, the mixture was kept for incubation for 60 min over water bath, maintaining the temperature of the water bath at 95 °C. Later, the mixture was allowed to cool and then extracted with a freshly prepared mixture of n-butanol and pyridine (15:1 v/v), the organic layer obtained was centrifuged at 3000 rpm for about 10 min. The organic layer was separated out and visualised on UV–visible spectrophotometer. Concentration was measured using the following formula: Concentration=Absorbance×volume×109÷1.56×10^5×1000
Results obtained were expressed as nmol MDA/100 mg tissue and extinction coefficient (1.56 × 10^5) cm^-1 M^-1.

[6] = tested on: A549 (Lung) cancer cell line; test: MTT cytotoxicity assay, A549; details: Homo sapiens, A549, 72 h, read-out: IC50 (µM) (Mean ± SD) A549
Procedure: (§1) All the synthesized imidazothiazole derivatives linked with thiazolidinone moiety (4a-g and 5a-d, Fig. 4) were evaluated for their in- vitro anticancer activities against three selected human cancer cell lines namely non-small lung (A549), breast (MCF7) and colorectal (HCT116) and one normal human embryonic kidney cell line (HEK293) using the 3‐(4,5‐Dimethylthiazol‐2‐yl)-2,5‐Diphenyltetrazolium Bromide (MTT) assay method. […] Compounds were tested against selected cancer cell lines namely A549 (Lung), MCF-7(Breast) HCT116 (Colon), normal human embryonic kidney cell line (HEK293) and procured from National Centre for Cell Science Complex (NCCS) Pune University, India. Into a 96 well plate, cells were seeded into each well (3 × 10^3 cells/ per well), the plate were incubated for 24 h, after that the culture medium was discarded and replaced with fresh medium along with our newly synthesized test compounds in different concentration (10, 20, 40 and 80 µM) followed by incubation for 72 h. […] Finally, each well is treated with DMSO (100 µL) and swirled to dissolve the dark crystals of formazan. ELISA reader was used to measure the absorbance at 570 nm. The experiment was repeated three times; Graph pad prism and excel are used to calculate the IC50 values[51].

[7] = tested on: MCF7 human breast cancer cell line; test: MTT cytotoxicity assay, MCF7; details: MCF7, 72 h, read-out: IC50 (µM) (Mean ± SD) MCF7
Procedure: as §1

[8] = tested on: HCT116 human colorectal cancer cell line; test: MTT cytotoxicity assay, HCT116; details: HCT-116, 72 h, read-out: IC50 (µM) (Mean ± SD) HCT116
Procedure: as §1

EGFR kinase = EGFR kinase (Homo sapiens, UniProt P00533); test: In vitro EGFR kinase inhibitory assay (ELISA, phospho-EGFR in A549 cell lysates)
Chain of EGFR kinase (P00533 25-1210): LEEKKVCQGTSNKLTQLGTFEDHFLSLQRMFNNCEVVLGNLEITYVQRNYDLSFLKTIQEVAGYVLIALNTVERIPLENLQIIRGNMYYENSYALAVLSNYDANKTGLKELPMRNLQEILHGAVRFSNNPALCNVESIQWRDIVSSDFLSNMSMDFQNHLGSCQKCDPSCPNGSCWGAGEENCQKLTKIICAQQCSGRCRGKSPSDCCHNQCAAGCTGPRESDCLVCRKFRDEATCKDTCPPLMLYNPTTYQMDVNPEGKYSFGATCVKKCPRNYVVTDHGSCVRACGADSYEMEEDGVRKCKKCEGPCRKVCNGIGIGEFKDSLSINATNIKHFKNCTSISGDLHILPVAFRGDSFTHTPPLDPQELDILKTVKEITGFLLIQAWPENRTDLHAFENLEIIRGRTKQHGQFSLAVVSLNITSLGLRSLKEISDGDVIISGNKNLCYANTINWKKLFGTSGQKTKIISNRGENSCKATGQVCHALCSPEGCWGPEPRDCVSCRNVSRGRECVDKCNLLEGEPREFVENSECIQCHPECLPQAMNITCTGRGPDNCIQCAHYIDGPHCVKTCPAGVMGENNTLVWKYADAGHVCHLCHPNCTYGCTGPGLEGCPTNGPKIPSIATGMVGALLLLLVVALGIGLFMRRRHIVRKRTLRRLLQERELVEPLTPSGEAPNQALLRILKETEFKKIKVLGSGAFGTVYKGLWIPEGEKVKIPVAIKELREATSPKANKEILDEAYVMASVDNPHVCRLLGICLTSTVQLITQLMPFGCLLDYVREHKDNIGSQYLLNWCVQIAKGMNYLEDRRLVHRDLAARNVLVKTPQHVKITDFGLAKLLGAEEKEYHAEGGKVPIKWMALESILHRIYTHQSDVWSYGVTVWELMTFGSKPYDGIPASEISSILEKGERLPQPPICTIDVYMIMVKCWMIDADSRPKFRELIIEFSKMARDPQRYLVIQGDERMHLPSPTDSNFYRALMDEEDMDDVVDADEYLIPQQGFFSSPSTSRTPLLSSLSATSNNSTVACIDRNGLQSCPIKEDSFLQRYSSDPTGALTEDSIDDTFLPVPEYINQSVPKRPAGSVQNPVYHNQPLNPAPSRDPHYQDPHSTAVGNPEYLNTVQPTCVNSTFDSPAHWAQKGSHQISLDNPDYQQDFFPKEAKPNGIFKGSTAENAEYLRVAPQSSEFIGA
Procedure: For all the synthesized compounds, the overall methodology of a spectrophotometric assay for the inhibition of EGFR tyrosine kinase activity was evaluated in human A549 cells, which expressed high levels of EGFR protein. […] Cells were then washed with cold PBS, lysed in 0.2 ml/well of HNTG buffer (50 mM HEPES [(4‐(2‐hydroxyethyl)‐piperazineethanesulfonic acid; pH 7.5], 150 mM NaCl, 1.5 mM MgCl, 10% glycerol, 1% Triton X‐100, 0.5 mM sodium fluoride, 2 g/ml aprotinin, 2 g/ml pepstatin A, 1 mM sodium orthovanadate, 2 g/ml leupeptin, 1 mM phenyl methyl sulfonyl fluoride) for 10 min, and the lysates were collected as the supernatant fraction after a 12‐min centrifugation at 15,000 g. The specific EGFR concentration was measured by ELISA assay. Briefly, the wells of ELISA plates were coated with supernatant fraction and incubated at 4 °C overnight After washing three times with buffer (20 mM PBS, pH 7.2 containing 0.05% Tween‐20), the wells were blocked with 1% BSA for 2–3 h at room temperature. Further, the plate was washed and then mouse serum at 1,000‐fold dilution was added, followed by washing and incubation with phospho‐EGFR antibody (Invitrogen) at 4 °C overnight. The wells were washed and incubated with substrate solution (o‐phenylenediamine dihydrochloride), for 30 min, and the absorbance read on an ELISA plate reader at 490 nm[52]. %Inhibition=mean OD of untreated group-mean OD of treated group/mean OD of untreated group)×100.

[9] = read-out: BSA denaturation inhibition assay % inhibition of denaturation

Structure (SMILES)	Migration of A549 cells (wound healing) (A549 cells [1])	Apoptotic cells (AO/EB dual staining) (A549 cells [2])	BSA denaturation inhibition assay Mean absorbance ± SEM [3]	inhibition at 100 µg/mL [3, 9]	% inhibition (paw edema) [4]	Increase in Paw volume SEM [4]	Activity relative to standard drug [4]	Mean ulcer severity index ± SEM (gastric mucosa of rats)	Lipid peroxidation [5]	IC50 [6]	IC50 [7]	IC50 [8]	IC50 (EGFR kinase)	inhibition at 100 µg/mL ([3]; read-out: BSA denaturation inhibition assay % inhibition of denaturation, 100 μg/mL)
CC1SC(c2c(-c3ccccc3)nc3sccn23)N(c2ccc(Cl)cc2)C1=O (centres unmarked) [Compound 4b, 3-(4-Chlorophenyl)-5-methyl-2-(6-phenylimidazo[2,1-b]thiazol-5-yl) thiazolidin-4-one]	significant suppression in the migration of A549 cells	number of apoptotic cells enhanced	0.329 ± 0.001	84.9%	81.34%	0.128 ± 0.018	101.27	0.416 ± 0.153	4.12 ± 0.159 Nmol MDA/100 mg tissue	21.1 ± 1.04 µM	29.2 ± 7.1 µM	45 ± 1.02 µM	24.3 ± 1.73 µM	
CC1SC(c2c(-c3ccccc3)nc3sccn23)N(c2ccc(F)cc2)C1=O (centres unmarked) [Compound 4a, 3-(4-Fluorophenyl)-5-methyl-2-(6-phenylimidazo[2,1-b]thiazol-5-yl) thiazolidin-4-one]	significant suppression in the migration of A549 cells	number of apoptotic cells enhanced			79.45%	0.141 ± 0.025	98.91	1.167 ± 0.210	5.98 ± 0.114 Nmol MDA/100 mg tissue	22.5 ± 2.04 µM	22.8 ± 5.5 µM	23.7 ± 0.85 µM	28.6 ± 1.96 µM	82.1%
CC1SC(c2c(-c3ccccc3)nc3sccn23)N(c2ccc(Br)cc2)C1=O (centres unmarked) [Compound 4c, 3-(4-Bromophenyl)-5-methyl-2-(6-phenylimidazo[2,1-b]thiazol-5-yl) thiazolidin-4-one]	significant suppression in the migration of A549 cells	number of apoptotic cells enhanced	0.332 ± 0.006	83.6%	80.17%	0.136 ± 0.014	99.82	0.500 ± 0.182	5.37 ± 0.060 Nmol MDA/100 mg tissue	10.7 ± 0.4 µM	18.7 ± 0.88 µM	23.2 ± 1.89 µM	18.4 ± 1.25 µM	
